Reference: ChEMBL document CHEMBL5625259, “Direct-to-biology platform: From synthesis to biological evaluation of SHP2 allosteric inhibitors” (Bioorg Med Chem Lett, 2024)

Target: T1, Tyrosine-protein phosphatase non-receptor type 11 (Homo sapiens, UniProt Q06124)
T1 sequence (Q06124 whole entry): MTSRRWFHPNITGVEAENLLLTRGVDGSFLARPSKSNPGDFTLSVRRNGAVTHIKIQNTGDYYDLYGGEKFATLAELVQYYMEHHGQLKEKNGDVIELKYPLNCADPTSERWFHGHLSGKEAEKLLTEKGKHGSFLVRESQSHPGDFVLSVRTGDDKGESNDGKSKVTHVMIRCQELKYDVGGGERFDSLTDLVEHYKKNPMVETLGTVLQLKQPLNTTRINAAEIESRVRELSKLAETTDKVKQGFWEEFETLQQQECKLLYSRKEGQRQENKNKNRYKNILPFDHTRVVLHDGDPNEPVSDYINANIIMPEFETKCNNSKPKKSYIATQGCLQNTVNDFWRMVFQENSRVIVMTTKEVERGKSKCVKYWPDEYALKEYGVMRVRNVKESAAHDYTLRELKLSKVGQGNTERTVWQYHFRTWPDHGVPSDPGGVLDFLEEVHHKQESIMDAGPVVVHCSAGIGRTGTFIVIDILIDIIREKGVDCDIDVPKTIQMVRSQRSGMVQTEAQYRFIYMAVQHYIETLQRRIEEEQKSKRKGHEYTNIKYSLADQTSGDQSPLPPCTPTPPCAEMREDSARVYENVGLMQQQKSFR
Test: Allosteric inhibition of wild type SHP2 (unknown origin) assessed as dephosphorylation of DIFMUP by fluorescence based envision microplate reader analysis

IC50: > 3.2 µM
Structure (SMILES): FC(F)(F)c1ncccc1Sc1cnc2[nH]c(N3CCCC4(CNCCO4)C3)nc2n1 (stereo unspecified)
